Assay results reported in ChEMBL document CHEMBL1148617, “Design, synthesis, and structure-activity relationships of 1-,3-,8-, and 9-substituted-9-deazaxanthines at the human A2B adenosine receptor” (J Med Chem, 2006).

Columns and labels:
Adenosine receptor A2b = molecular target: T1, Adenosine receptor A2b (Homo sapiens, UniProt P29275)
T1 sequence (P29275 whole entry): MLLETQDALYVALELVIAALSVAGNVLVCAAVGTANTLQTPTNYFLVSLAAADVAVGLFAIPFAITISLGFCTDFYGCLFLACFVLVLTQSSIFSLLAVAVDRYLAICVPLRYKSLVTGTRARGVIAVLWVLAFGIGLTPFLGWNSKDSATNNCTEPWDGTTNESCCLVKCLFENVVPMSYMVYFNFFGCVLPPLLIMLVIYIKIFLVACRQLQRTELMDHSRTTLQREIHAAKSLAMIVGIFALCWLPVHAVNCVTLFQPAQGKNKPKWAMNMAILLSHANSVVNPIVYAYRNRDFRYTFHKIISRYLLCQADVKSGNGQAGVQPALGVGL
Description: Binding affinity to recombinant human adenosine A2B receptor

Adenosine receptor A2a [1] = molecular target: T2, Adenosine receptor A2a (Homo sapiens, UniProt P29274); assay: Displacement of [3H]ZM-241385 from recombinant human adenosine A2A receptor expressed in HeLa cells at 0.1 uM
T2 sequence (P29274 whole entry): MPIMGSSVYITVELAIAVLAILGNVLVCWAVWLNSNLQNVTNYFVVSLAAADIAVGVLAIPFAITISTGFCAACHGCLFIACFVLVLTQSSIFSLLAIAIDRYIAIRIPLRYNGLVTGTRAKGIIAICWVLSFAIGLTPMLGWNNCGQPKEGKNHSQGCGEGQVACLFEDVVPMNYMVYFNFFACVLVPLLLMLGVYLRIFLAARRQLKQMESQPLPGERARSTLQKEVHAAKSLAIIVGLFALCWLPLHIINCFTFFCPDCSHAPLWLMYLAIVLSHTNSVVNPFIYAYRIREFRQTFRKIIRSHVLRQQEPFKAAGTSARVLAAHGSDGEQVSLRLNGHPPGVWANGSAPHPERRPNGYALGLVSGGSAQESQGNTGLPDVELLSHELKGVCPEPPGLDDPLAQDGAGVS

[2] = molecular target: T3, Adenosine receptor A2b (Homo sapiens) (UniProt P29275); assay: Displacement of [3H]DPCPX from recombinant human adenosine A2B receptor expressed in HEK293 cells at 0.1 uM; type: cell-based
T3 sequence (whole entry): T1 sequence (P29275 whole entry)

Adenosine receptor A2a [3] = molecular target: T2, Adenosine receptor A2a
Description: Binding affinity to recombinant human adenosine A2A receptor

[4] = molecular target: T3, Adenosine receptor A2b (Homo sapiens); assay: Displacement of [3H]DPCPX from recombinant human adenosine A2B receptor expressed in HEK293 cells at 0.01 uM

Ki (Adenosine receptor A2b) [nM]	inhibition (Adenosine receptor A2a [1]) [%]	inhibition [2] [%]	Ki (Adenosine receptor A2a [3]) [nM]	inhibition [4] [%]	SMILES
45.7	15	51	776	–	CCCn1c(=O)n(C)c(=O)c2[nH]c(-c3ccc(OCC(=O)O)cc3)cc21
66.1	16	57	447	–	CCOC(=O)COc1ccc(-c2cc3c([nH]2)c(=O)n(CC)c(=O)n3CCCOC)cc1
20.4	20	76	–	33	CCCn1c(=O)c2[nH]c(-c3ccc(OCC(=O)NCc4ccc(Cl)cc4)cc3)cc2n(C)c1=O
> 1000	–	–	> 1000	–	CCCn1c(=O)c2[nH]c(-c3ccc(OCC(=O)c4ccc(I)cc4)nn3)nc2n(CCC)c1=O
14.1	44	81	–	27	CCCn1c(=O)c2[nH]c(-c3ccc(OCC(=O)Nc4ccc(C)cc4)cc3)cc2n(CCC)c1=O
3.89	70	99	–	76	CC(Oc1ccc(-c2cc3c([nH]2)c(=O)n(C)c(=O)n3C)cc1)C(=O)Nc1ccc(F)cc1 (configuration not stated)
> 1000	–	–	12.6	–	CCCn1c(=O)c2nc(-c3cc(OCC(=O)c4ccc(F)cc4)nn3C)[nH]c2n(CCC)c1=O
132	0	35	–	10	CCCn1c(=O)c2[nH]c(-c3ccc(OCC(=O)Nc4ccc(CC(=O)OCC)cc4)cc3)cc2n(C)c1=O
200	37	53	–	10	CCCn1c(=O)c2[nH]c(-c3ccc(OCC(=O)Nc4ccc(S(N)(=O)=O)cc4)cc3)cc2n(CCC)c1=O
269	5	15	–	–	COc1cc(-c2cc3c([nH]2)c(=O)n(C)c(=O)n3C)ccc1OCC(=O)O
77.6	13	51	–	11	CCCn1c(=O)c2[nH]c(-c3ccc(OCC(=O)Nc4ccc(C(=O)c5ccccc5)cc4)cc3)cc2n(CCC)c1=O
43.7	21	63	4070	–	CCCn1c(=O)c2[nH]c(-c3ccc(OCC(=O)O)cc3)cc2n(C)c1=O
5890	–	–	2.14	–	CCCn1c(=O)c2[nH]c(-c3ccc(OCC(=O)c4ccc(I)cc4)cc3)nc2n(CCC)c1=O
158	19	36	398	–	CCCn1c(=O)c2[nH]c(-c3ccc(OCC(=O)O)cc3)c(Cl)c2n(CCC)c1=O
20	34	80	–	24	Cn1c(=O)c2[nH]c(-c3ccc(OCC(=O)Nc4nc5ccccc5[nH]4)cc3)cc2n(C)c1=O
43.7	8	44	1000	–	CCCn1c(=O)c2[nH]c(-c3ccc(OC(C)C(=O)O)cc3)cc2n(CCC)c1=O (configuration not stated)
> 1000	–	–	32.4	–	CCCn1c(=O)c2nc(-c3cc(OCC(=O)c4ccc(C(=O)OCC)cc4)nn3C)[nH]c2n(CCC)c1=O
> 1000	–	–	87.1	–	CCCn1c(=O)c2nc(-c3cc(OCC(=O)c4ccc(C(C)=O)cc4)nn3C)[nH]c2n(CCC)c1=O
20	15	62	–	24	CCCn1c(=O)c2[nH]c(-c3ccc(OCC(=O)Nc4ccc(C(C)=O)cc4)cc3)cc2n(CCC)c1=O
> 1000	–	–	19.1	–	CCCn1c(=O)c2[nH]c(-c3cc(OCC(=O)c4ccc(C)cc4)nn3C)nc2n(CCC)c1=O
288	10	25	1950	–	CCOC(=O)COc1ccc(-c2cc3c([nH]2)c(=O)n(C)c(=O)n3C)cc1
> 1000	–	–	93.3	–	CCCn1c(=O)c2nc(-c3cc(OCC(=O)c4ccc(Br)cc4)n(C)n3)[nH]c2n(CCC)c1=O

Ki (Adenosine receptor A2b) [nM]	inhibition (Adenosine receptor A2a [1]) [%]	inhibition [2] [%]	Ki (Adenosine receptor A2a [3]) [nM]	inhibition [4] [%]	SMILES
> 1000	–	–	25.1	–	CCCn1c(=O)c2[nH]c(-c3cc(OCC(=O)c4ccc(Br)cc4)nn3C)nc2n(CCC)c1=O
5.89	24	97	–	51	CCCn1c(=O)c2[nH]c(-c3ccc(OCC(=O)Nc4ccc(I)cc4)cc3)cc2n(C)c1=O
79.4	11	48	490	–	CCCn1c(=O)c2[nH]c(-c3ccc(OCC(=O)O)cc3)c(Br)c2n(CCC)c1=O
2190	11	10	–	–	CCOC(=O)COc1ccc(-c2cc3c([nH]2)c(=O)n(C)c(=O)n3C)c(OC)c1
1550	1	3	–	–	COc1cc(OCC(=O)O)ccc1-c1cc2c([nH]1)c(=O)n(C)c(=O)n2C
–	–	–	5890	–	CCCn1c(=O)c2[nH]c(-c3ccc(OCC(=O)Nc4ccc(I)cc4)cc3)nc2n(CCC)c1=O
15.8	–	–	123	–	CCCn1c(=O)c2[nH]c(-c3ccc(OCC(=O)O)cc3)cc2n(CCC)c1=O
> 1000	–	–	11	–	CCCn1c(=O)c2nc(-c3ccc(OCC(=O)c4ccc(I)cc4)cn3)[nH]c2n(CCC)c1=O
–	14	50	–	12	COc1cc(NC(=O)COc2ccc(-c3cc4c([nH]3)c(=O)n(C)c(=O)n4C)cc2)nc(OC)n1
3.55	36	91	–	65	CC(=O)c1ccc(NC(=O)COc2ccc(-c3cc4c([nH]3)c(=O)n(C)c(=O)n4C)cc2)cc1
–	9	40	–	9	CCCn1c(=O)c2[nH]c(-c3ccc(N(C=O)CC(=O)O)cc3)cc2n(CCC)c1=O
–	6	26	–	12	CCCn1c(=O)c2[nH]c(-c3ccc(OC(C)(C)C(=O)O)cc3)cc2n(CCC)c1=O
–	12	73	–	24	CCCn1c(=O)c2[nH]c(-c3ccc(OCC(=O)Nc4ccc(C)cn4)cc3)cc2n(C)c1=O
–	9	34	–	5	CC(Oc1ccc(-c2cc3c([nH]2)c(=O)n(C)c(=O)n3C)cc1)C(=O)O (configuration not stated)
–	35	17	–	3	CCCn1c(=O)c2[nH]c(-c3ccc(OCC(=O)Nc4ccccc4)cc3OC)cc2n(CCC)c1=O
–	3	49	–	27	CCCn1c(=O)c2[nH]c(-c3ccc(OCC(=O)NCc4ccncc4)cc3)cc2n(C)c1=O
7.94	–	–	191	–	CCCn1c(=O)c2[nH]c(-c3ccc(OCC(=O)Nc4ccc(Cl)cc4)cc3)nc2n(CCC)c1=O
–	20	44	–	11	Cn1c(=O)c2[nH]c(-c3ccc(OCC(=O)Nc4cnccn4)cc3)cc2n(C)c1=O
> 1000	–	–	186	–	CCCn1c(=O)c2nc(-c3cc(OCC(=O)c4ccc(F)cc4)n(C)n3)[nH]c2n(CCC)c1=O
–	39	64	–	18	CCCn1c(=O)c2[nH]c(-c3ccc(OCC(=O)Nc4ccc(Br)cc4)cc3OC)cc2n(CCC)c1=O
–	75	89	–	44	CCCn1c(=O)c2[nH]c(-c3ccc(OC(C(=O)Nc4ccccc4)c4ccccc4)cc3)cc2n(CCC)c1=O (configuration not stated)
